Ends that are not written are not given here.

The values that follow come from US7563862B2, “Neural regeneration peptides and methods for their use in treatment of brain damage” (Neuren Pharmaceuticals Limited, priority 2001, dated 2009).

Assay [1] deals with mouse forebrain neural stem cells. Put plainly: neurosphere expansion assay, shift from symmetric to asymmetric division of neural stem cells. Format: cell-based. The settings on record: nanomolar concentrations. The text has this: To determine whether NRPs could induce a shift of cells within neurospheres from symmetric (two stem cells, both stem cells) to asymmetric division of neural stem cells (1 stem cell, 1 neuronal progenitor or neuroblast cell), as has been described for erythropoietin (EPO) by Shingo et al. (2001), neurospheres were dissociated by trituration and seeded for expansion at a density of 200,000 cells/well in 6 well plates in NSA medium with EGF only, EGF plus varying concentrations of an NRP, or EGF plus 10 U/ml EPO. One half of the medium with fresh NRP compound was exchanged every other day. After 7 days the cells from the neurospheres were plated. In the presence of EGF, cells retain symmetric cell division. With the removal of EGF, cells begin to differentiate (asymmetric cell division). Subsequently, the cells were subjected to a differentiation assay as described below, with the exception that bFGF was not added to the plating medium for the initial 24 h and differentiation for 7 days was allowed in control medium without NRPs or other compounds. In cells that had never been exposed to an NRP, the numbers of neuroblast cells were lower than in cells that had been exposed to an NRP or EPO. Therefore, NRPs can increase the differentiation of undifferentiated stem cells into neuroblast cells.

A further assay has as its system embryonic striatal cells. Kind of assay: haptotactic migration assay, striatal cells. Format: cell-based, rat. The settings on record: dishes coated with 150 ng, 48 hrs. The source says: To test the cell adhesion and neuronal migration inducing properties of the NRPs a haptotactic migration cell assay was developed (Lu et al.,2001). For this purpose Transwell® cell culture dishes (Costar) with fitting inserts having pores therein with a 12 μm pore size were used to cultivate striatal and neocortical cells. In general, a test agent was adhered to the surface of a culture dish and an insert having pores was placed in culture medium over but not in contact with the surface of the culture dish. Test cells were placed in the inserts, and any cells migrating through the pores and onto the surface of the culture dish reflected chemattractiveness by the test molecule. Under these conditions, the surface of the culture dish would, over time, release some NRP molecules into the culture medium. It can be appreciated that the concentration of “free” NRP would be greater nearer the surface of the culture dish than at distances farther away from the culture dish, thereby creating a gradient in NRP concentration. […] By counting the number and morphology of such migrant cells, effects of NRPs on neuronal migration and differentiation can be evaluated. […]
For seeding striatal cells, 1.5 ml of Neurobasal/B27 medium was put into the culture dishes and 0.5 ml of NeurobasaVB27 medium was put into the insert. The assay was ready for cell seeding. […]

The next assay concerns GFAP-positive astrocytes. Put plainly: astrocyte proliferation (GFAP/BrdU) in thalamocortical OTC cell bridge. Format: cell-based, rat. The protocol: FIG. 12 depicts the specificity of the proliferation induced by NRP-1 (SEQ ID NO: 2). We tested the proliferation status of astroglia by monitoring the expression patterns for GFAP and BrdU-incorporation. Thalamocortical OTCs were supplemented with 3 nM highly purified migration-inducing factor and fixed following 4 days in vitro. FIG. 12A (left panel) depicts non-proliferative GFAP-positive astrocytes (white arrows) accompanying the neuronal migration stream, with a subpopulation of astrocytes of proliferative character (FIG. 12B, right panel; white arrow heads). Approximately 30% of the astrocytes in close vicinity to the neuronal migration stream were of proliferative character. Bar: 50 μm.
We also investigated the effects of NRP-1 (SEQ ID NO:2) on the induction of proliferation within astrocytes in a qualitative way. […] Therefore we looked only at the newly formed cell bridge between the thalamic and cortical tissue 4 days after NRP administration.

In the case of “KDPEARRAPGSLHPCLAAS-NH2 [NRP-2 segment KS, 19-mer fragment of NRP-2]”, the “production of neuronal progenitors” value in assay [1] was “promoted the production of neuronal progenitors at the expense of multipotent stem cells”. The “migration induction of striatal neurons” value with embryonic striatal cells is recorded as “substantial migration induction”.
As to “NRP-1: rat 16 amino acid neural regeneration peptide purified from hippocampal OTC supernatant, Tyr Asp Pro Glu ... Cys His-NH2 (YDPEAASAPGSGNPCH-NH2)”, the astroglial division result in the assay on GFAP-positive astrocytes is “does not induce astroglial division”. Further, the “astrocytes in close vicinity to the neuronal migration stream of proliferative character” value with GFAP-positive astrocytes (3 nM, 4 days in vitro) was “Approximately 30%”.
